Read-outs that look alike come from different tables or passages of the source.
Columns and labels:
Assay in all cases: Test C pre/postemergence
Format in all cases: in vivo
[1] = test system: lambsquarters (Chenopodium album); settings: Chenopodium album, read-out: Plant response rating, Lambsquarters; for pest or weed control at 250 g/ha: 250 g ai/ha; for pest or weed control at 500 g/ha: 500 g ai/ha
Source text: (§1) Seeds or nutlets of plant species selected from bermudagrass (Cynodon dactylon), Surinam grass (Brachiaria decumbens), cocklebur (Xanthium strumarium), corn (Zea mays), crabgrass (Digitaria sanguinalis), woolly cupgrass (Eriochloa villosa), giant foxtail (Setaria faberii), goosegrass (Eleusine indica), johnsongrass (Sorghum halepense), kochia (Kochia scoparia), lambsquarters (Chenopodium album), morningglory (Ipomoea coccinea), eastern black nightshade (Solanum ptycanthum), yellow nutsedge (Cyperus esculentus), pigweed (Amaranthus retroflexus), common ragweed (Ambrosia elatior), soybean (Glycine max), common (oilseed) sunflower (Helianthus annuus), and velvetleaf (Abutilon theophrasti) were planted and treated preemergence with test chemicals formulated in a non-phytotoxic solvent mixture which included a surfactant.
(§2) At the same time, plants selected from these crop and weed species and also winter barley (Hordeum vulgare), blackgrass (Alopecurus myosuroides), canarygrass (Phalaris minor), chickweed (Stellaria media), downy brome (Bromus tectorum), green foxtail (Setaria viridis), Italian ryegrass (Lolium multiflorum), wheat (Triticum aestivum), wild oat (Avena fatua) and windgrass (Apera spica-venti) were treated with postemergence applications of some of the test chemicals formulated in the same manner. Plants ranged in height from 2 to 18 cm (1- to 4-leaf stage) for postemergence treatments. Plant species in the flooded paddy test consisted of rice (Oryza sativa), umbrella sedge (Cyperus difformis), duck salad (Heteranthera limosa) and barnyardgrass (Echinochloa crus-galli) grown to the 2-leaf stage for testing. Treated plants and controls were maintained in a greenhouse for 12 to 14 days, after which time all species were compared to controls and visually evaluated. Plant response ratings, summarized in Table C, are based on a scale of 0 to 100 where 0 is no effect and 100 is complete control. A dash (-) response means no test result.

[2] = test system: Surinam grass (Brachiaria decumbens); settings: Urochloa decumbens; for pest or weed control at 125 g/ha: 125 g ai/ha; for pest or weed control at 500 g/ha: 500 g ai/ha; for pest or weed control at 62 g/ha: 62 g ai/ha; for pest or weed control at 250 g/ha: 250 g ai/ha
Source text: as §1, §2

kochia (Kochia scoparia) = settings: Bassia scoparia; for pest or weed control at 62 g/ha: 62 g ai/ha; for pest or weed control at 125 g/ha: 125 g ai/ha; for pest or weed control at 250 g/ha: 250 g ai/ha; for pest or weed control at 500 g/ha: 500 g ai/ha
Source text: as §1, §2

corn (Zea mays) = settings: Zea mays; for Corn plant response rating (crop injury, 0 = no effect, 100 = complete kill) at 62 g/ha: 62 g ai/ha; for Corn plant response rating (crop injury, 0 = no effect, 100 = complete kill) at 125 g/ha: 125 g ai/ha; for Corn plant response rating (crop injury, 0 = no effect, 100 = complete kill) at 250 g/ha: 250 g ai/ha; for Corn plant response rating (crop injury, 0 = no effect, 100 = complete kill) at 500 g/ha: 500 g ai/ha
Source text: as §1, §2

[3] = test system: common (oilseed) sunflower (Helianthus annuus); settings: Helianthus annuus, pre-emergence, Preemergence, read-out: Plant response rating, Sunflower
Source text: as §1, §2

[4] = test system: morningglory (Ipomoea coccinea); settings: Ipomoea; for pest or weed control at 62 g/ha: 62 g ai/ha; for pest or weed control at 125 g/ha: 125 g ai/ha; for pest or weed control at 250 g/ha: 250 g ai/ha; for pest or weed control at 500 g/ha: 500 g ai/ha
Source text: as §1, §2

[5] = post-emergence, Postemergence, scale 0 to 100
[6] = pre-emergence, Preemergence, scale 0 to 100
[7] = post-emergence, Postemergence, scale 0 to 100 (0 no effect, 100 complete control), read-out: Surinam Grass plant response rating
[8] = post-emergence, Postemergence, scale 0 to 100, read-out: Plant response rating, Surinam Grass
[9] = pre-emergence, Preemergence, scale 0 to 100, read-out: Plant response rating, Surinam Grass
[10] = post-emergence, Postemergence, scale 0 to 100 (0 no effect, 100 complete control), read-out: Kochia plant response rating
[11] = post-emergence, Postemergence, scale 0 to 100, read-out: Plant response rating, Kochia
[12] = pre-emergence, Preemergence, scale 0 to 100, read-out: Plant response rating, Kochia
[13] = post-emergence, Postemergence, scale 0 to 100 (0 no effect, 100 complete control), read-out: Corn plant response rating
[14] = post-emergence, Postemergence, scale 0 to 100 (0 no effect, 100 complete control), read-out: Morningglory plant response rating
[15] = post-emergence, Postemergence, scale 0 to 100, read-out: Plant response rating, Morningglory
[16] = pre-emergence, Preemergence, scale 0 to 100, read-out: Plant response rating, Morningglory

Question: What does the source list for `Nc1nc(C2CC2)nc(C(=O)O)c1Br` [Compound 8]?
Answer: pest or weed control at 250 g/ha [1, 5]: 100%; pest or weed control at 500 g/ha [1, 5]: 100%; pest or weed control at 62 g/ha ([1]; pre-emergence, Preemergence, 62 g ai/ha, scale 0 to 100, 0 no effect, 100 complete control): 0%; pest or weed control at 125 g/ha ([1]; pre-emergence, Preemergence, 125 g ai/ha, scale 0 to 100): 20%; pest or weed control at 250 g/ha [1, 6]: 90%; pest or weed control at 500 g/ha [1, 6]: 100%; pest or weed control at 125 g/ha [2, 7]: 65%; pest or weed control at 500 g/ha [2, 8]: 80%; pest or weed control at 62 g/ha [2, 7]: 40%; pest or weed control at 250 g/ha [2, 8]: 70%; pest or weed control at 62 g/ha ([2]; pre-emergence, Preemergence, scale 0 to 100, 0 no effect, 100 complete control, read-out: Plant response rating, Surinam Grass): 0%; pest or weed control at 125 g/ha [2, 9]: 100%; pest or weed control at 250 g/ha [2, 9]: 100%; pest or weed control at 500 g/ha [2, 9]: 100%; pest or weed control at 62 g/ha (kochia (Kochia scoparia); [10]): 95%; pest or weed control at 125 g/ha (kochia (Kochia scoparia); [10]): 100%; pest or weed control at 250 g/ha (kochia (Kochia scoparia); [11]): 100%; pest or weed control at 500 g/ha (kochia (Kochia scoparia); [11]): 100%; pest or weed control at 62 g/ha (kochia (Kochia scoparia); pre-emergence, Preemergence, scale 0 to 100, 0 no effect, 100 complete control, read-out: Plant response rating, Kochia): 50%; pest or weed control at 125 g/ha (kochia (Kochia scoparia); [12]): 85%; pest or weed control at 250 g/ha (kochia (Kochia scoparia); [12]): 100%; pest or weed control at 500 g/ha (kochia (Kochia scoparia); [12]): 100%; Corn plant response rating (crop injury, 0 = no effect, 100 = complete kill) at 62 g/ha (corn (Zea mays); [13]): 0%; Corn plant response rating (crop injury, 0 = no effect, 100 = complete kill) at 125 g/ha (corn (Zea mays); [13]): 20%; Corn plant response rating (crop injury, 0 = no effect, 100 = complete kill) at 250 g/ha (corn (Zea mays); [5]): 70%; Corn plant response rating (crop injury, 0 = no effect, 100 = complete kill) at 500 g/ha (corn (Zea mays); [5]): 90%; Corn plant response rating (crop injury, 0 = no effect, 100 = complete kill) at 62 g/ha (corn (Zea mays); pre-emergence, Preemergence, scale 0 to 100, 0 no effect, 100 complete control, read-out: Plant response rating, Corn): 0%; Corn plant response rating (crop injury, 0 = no effect, 100 = complete kill) at 125 g/ha (corn (Zea mays); pre-emergence, Preemergence, scale 0 to 100, read-out: Plant response rating, Corn): 0%; Corn plant response rating (crop injury, 0 = no effect, 100 = complete kill) at 250 g/ha (corn (Zea mays); [6]): 10%; Corn plant response rating (crop injury, 0 = no effect, 100 = complete kill) at 500 g/ha (corn (Zea mays); [6]): 75%; pest or weed control at 62 g/ha ([3]; 62 g ai/ha, scale 0 to 100, 0 no effect, 100 complete control): 20%; pest or weed control at 125 g/ha ([3]; 125 g ai/ha, scale 0 to 100): 40%; pest or weed control at 250 g/ha ([3]; 250 g ai/ha, scale 0 to 100): 100%; pest or weed control at 500 g/ha ([3]; 500 g ai/ha, scale 0 to 100): 100%; pest or weed control at 62 g/ha [4, 14]: 95%; pest or weed control at 125 g/ha [4, 14]: 95%; pest or weed control at 250 g/ha [4, 15]: 100%; pest or weed control at 500 g/ha [4, 15]: 100%; pest or weed control at 62 g/ha ([4]; pre-emergence, Preemergence, scale 0 to 100, 0 no effect, 100 complete control, read-out: Plant response rating, Morningglory): 20%; pest or weed control at 125 g/ha [4, 16]: 100%; pest or weed control at 250 g/ha [4, 16]: 100%; pest or weed control at 500 g/ha [4, 16]: 100%
